PubChem BioAssay AID256 (DTP/NCI, 2004)
Several values for one entry are separate records, joined by “and”; a condition that tells them apart may be missing. Identical values can stand only once. Inconclusive results and toxic doses are left out. The calls were made as follows: active = survival T/C of 150% or more; inactive = T/C below 125% in these data.

Tested on: CD2F1 mice, L1210 leukemia ip, survival T/C
Assay: NCI In Vivo Anticancer Drug Screen. Data for tumor model L1210 Leukemia (intraperitoneal) in CD2F1 (CDF1) mice
Conditions: higher = longer survival
In short: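 Vehicle-treated tumor-bearing mice served as controls (C) for compound-treated mice (T). Reported figure is T divided by C.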

[1] = endpoint: mean survival time, dose: 100.0 mg/kg/injection, schedule: Q01DX009 (ip), vehicle: saline
[2] = endpoint: mean survival time, dose: 100.0 mg/kg/injection, schedule: Q04DX003 (ip), vehicle: saline with Tween-80
[3] = endpoint: mean survival time, dose: 200.0 mg/kg/injection, schedule: Q01DX009 (ip), vehicle: saline
[4] = endpoint: mean survival time, dose: 200.0 mg/kg/injection, schedule: Q04DX003 (ip), vehicle: saline with Tween-80
[5] = endpoint: mean survival time, dose: 400.0 mg/kg/injection, schedule: Q04DX003 (ip), vehicle: saline with Tween-80
[6] = endpoint: mean survival time, dose: 75.0 mg/kg/injection, schedule: Q01DX001 (ip), vehicle: saline
[7] = endpoint: mean survival time, dose: 150.0 mg/kg/injection, schedule: Q01DX001 (ip), vehicle: saline
[8] = endpoint: mean survival time, dose: 100.0 mg/kg/injection, schedule: Q01DX009 (ip), vehicle: saline with Tween-80
[9] = endpoint: mean survival time, dose: 200.0 mg/kg/injection, schedule: Q01DX009 (ip), vehicle: saline with Tween-80
[10] = endpoint: mean survival time, dose: 400.0 mg/kg/injection, schedule: Q01DX009 (ip), vehicle: saline with Tween-80
[11] = endpoint: mean survival time, dose: 50.0 mg/kg/injection, schedule: Q01DX009 (ip), vehicle: saline
[12] = endpoint: mean survival time, dose: 50.0 mg/kg/injection, schedule: Q01DX009 (ip), vehicle: saline with Tween-80

Measured: T/C

Nc1ccn(C2OC(CO)C(O)C2Br)c(=O)n1 (stereo not given)
active: endpoint: median survival time, dose: 200.0 mg/kg/injection, schedule: Q01DX005 (ip), vehicle: saline 150 % of control
inactive: endpoint: median survival time, dose: 12.5 mg/kg/injection, schedule: Q01DX005 (ip), vehicle: saline 108 % of control | endpoint: median survival time, dose: 25.0 mg/kg/injection, schedule: Q01DX005 (ip), vehicle: saline 107 % of control | endpoint: median survival time, dose: 50.0 mg/kg/injection, schedule: Q01DX005 (ip), vehicle: Klucel (hydroxypropylcellulose) (HPC) 118 % of control | endpoint: median survival time, dose: 50.0 mg/kg/injection, schedule: Q01DX005 (ip), vehicle: saline 119 % of control

C=C1C=C(C)CC(C)(C)C1 (tested in a mixture with another compound)
inactive: [1] 101 % of control | [2] 102 % of control | [3] 101 % of control | [4] 100 % of control | endpoint: mean survival time, dose: 400.0 mg/kg/injection, schedule: Q01DX009 (ip), vehicle: saline 101 % of control | [5] 102 % of control

CCOC(=O)C(CC1OCCO1)C1=NC(C)(C)CC(C)O1 (stereo not given)
inactive: endpoint: mean survival time, dose: 100.0 mg/kg/injection, schedule: Q01DX001 (ip), vehicle: acetone 93 % of control | endpoint: mean survival time, dose: 200.0 mg/kg/injection, schedule: Q01DX001 (ip), vehicle: acetone 94 % of control

CC1CC=CCC1/C=N\Nc1ccc([N+](=O)[O-])cc1[N+](=O)[O-] (stereo not given)
inactive: [2] 98 % of control | [4] 94 % of control | [5] 100 % of control

CCCCN=C1C(=O)Nc2ccccc21
inactive: [6] 98 % of control | [7] 97 % of control | endpoint: mean survival time, dose: 300.0 mg/kg/injection, schedule: Q01DX001 (ip), vehicle: saline 95 % of control

Cc1c2c[n+](CCCCCCCC[n+]3ccc4c(C)c5c(c(C)c4c3)c3ccccc3n5CCO)ccc2c(C)c2c1c1ccccc1n2CCO
inactive: endpoint: mean survival time, dose: 1.56 mg/kg/injection, schedule: Q04DX003 (ip), vehicle: distilled water + Tween-80 119 % of control | endpoint: mean survival time, dose: 12.5 mg/kg/injection, schedule: Q04DX003 (ip), vehicle: distilled water + Tween-80 114 % of control
active: endpoint: mean survival time, dose: 6.25 mg/kg/injection, schedule: Q04DX003 (ip), vehicle: distilled water + Tween-80 150 % of control and 159 % of control

O/N=C1\CCCCC\C1=N/O.O/N=C1\CCCCC\C1=N/O.[Pt]
inactive: endpoint: mean survival time, dose: 3.13 mg/kg/injection, schedule: Q04DX003 (ip), vehicle: dextrose 104 % of control | endpoint: mean survival time, dose: 6.25 mg/kg/injection, schedule: Q04DX003 (ip), vehicle: dextrose 108 % of control | endpoint: mean survival time, dose: 12.5 mg/kg/injection, schedule: Q04DX003 (ip), vehicle: dextrose 98 % of control | endpoint: mean survival time, dose: 25.0 mg/kg/injection, schedule: Q04DX003 (ip), vehicle: dextrose 98 % of control and 101 % of control | endpoint: mean survival time, dose: 50.0 mg/kg/injection, schedule: Q04DX003 (ip), vehicle: dextrose 95 % of control and 106 % of control | endpoint: mean survival time, dose: 100.0 mg/kg/injection, schedule: Q04DX003 (ip), vehicle: dextrose 103 % of control | endpoint: mean survival time, dose: 200.0 mg/kg/injection, schedule: Q04DX003 (ip), vehicle: dextrose 96 % of control and 98 % of control

COc1cc([C@@H]2c3cc4c(cc3[C@H](OC(C)=O)[C@H]3COC(=O)[C@@H]23)OCO4)cc(OC)c1OC
inactive: endpoint: mean survival time, dose: 100.0 mg/kg/injection, schedule: Q01DX009 (ip), vehicle: saline sonified 88 % of control

CCCCCC(Br)C(Br)CC(Br)C(Br)CCCCCCCC(=O)O (stereo not given)
inactive: endpoint: mean survival time, dose: 100.0 mg/kg/injection, schedule: Q01DX009 (ip), vehicle: acetone 95 % of control | endpoint: mean survival time, dose: 200.0 mg/kg/injection, schedule: Q01DX009 (ip), vehicle: acetone 92 % of control | endpoint: mean survival time, dose: 400.0 mg/kg/injection, schedule: Q01DX009 (ip), vehicle: acetone 90 % of control

CC(=O)Oc1ccccc1C(=O)O
inactive: endpoint: mean survival time, dose: 31.3 mg/kg/injection, schedule: Q01DX009 (ip), vehicle: saline sonified 106 % of control | endpoint: mean survival time, dose: 31.3 mg/kg/injection, schedule: Q01DX009 (ip), vehicle: saline with Tween-80 100 % of control | endpoint: mean survival time, dose: 50.0 mg/kg/injection, schedule: Q03HX024 (ip), vehicle: saline 97 % of control | endpoint: mean survival time, dose: 62.5 mg/kg/injection, schedule: Q01DX009 (ip), vehicle: saline sonified 101 % of control | endpoint: mean survival time, dose: 62.5 mg/kg/injection, schedule: Q01DX009 (ip), vehicle: saline with Tween-80 98 % of control | endpoint: mean survival time, dose: 100.0 mg/kg/injection, schedule: Q03HX024 (ip), vehicle: saline 97 % of control | endpoint: mean survival time, dose: 125.0 mg/kg/injection, schedule: Q01DX009 (ip), vehicle: saline sonified 98 % of control | endpoint: mean survival time, dose: 125.0 mg/kg/injection, schedule: Q01DX009 (ip), vehicle: saline with Tween-80 96 % of control and 100 % of control | endpoint: mean survival time, dose: 250.0 mg/kg/injection, schedule: Q01DX009 (ip), vehicle: saline with Tween-80 96 % of control | endpoint: mean survival time, dose: 500.0 mg/kg/injection, schedule: Q01DX001 (ip), vehicle: saline with Tween-80 104 % of control | endpoint: mean survival time, dose: 1000.0 mg/kg/injection, schedule: Q01DX001 (ip), vehicle: saline with Tween-80 104 % of control

CCOc1ccc(NC2OC(CO)C(O)C(O)C2O)cc1 (stereo not given)
inactive: endpoint: mean survival time, dose: 100.0 mg/kg/injection, schedule: Q01DX001 (ip), vehicle: saline 100 % of control | endpoint: mean survival time, dose: 200.0 mg/kg/injection, schedule: Q01DX001 (ip), vehicle: saline 108 % of control

O=C(NC(=S)Nc1cccc2c(O)cccc12)c1cccc(Br)c1
inactive: endpoint: mean survival time, dose: 100.0 mg/kg/injection, schedule: Q01DX001 (ip), vehicle: saline with Tween-80 88 % of control and 91 % of control | [8] 86 % of control and 98 % of control | endpoint: mean survival time, dose: 100.0 mg/kg/injection, schedule: Q04DX002 (ip), vehicle: saline with Tween-80 90 % of control and 91 % of control | [2] 94 % of control | endpoint: mean survival time, dose: 200.0 mg/kg/injection, schedule: Q01DX001 (ip), vehicle: saline with Tween-80 88 % of control and 92 % of control | [9] 103 % of control and 108 % of control | endpoint: mean survival time, dose: 200.0 mg/kg/injection, schedule: Q04DX002 (ip), vehicle: saline with Tween-80 91 % of control and 94 % of control | [4] 94 % of control | endpoint: mean survival time, dose: 400.0 mg/kg/injection, schedule: Q01DX001 (ip), vehicle: saline with Tween-80 88 % of control and 90 % of control | [10] 116 % of control and 108 % of control | endpoint: mean survival time, dose: 400.0 mg/kg/injection, schedule: Q04DX002 (ip), vehicle: saline with Tween-80 90 % of control and 95 % of control | [5] 94 % of control

Cc1cc([N+](=O)[O-])ccc1P(=O)(O)O
inactive: [11] 88 % of control

N=C(N)c1cc(Cl)c(OCc2ccccc2)c(Cl)c1
inactive: endpoint: mean survival time, dose: 25.0 mg/kg/injection, schedule: Q04DX003 (ip), vehicle: saline with Tween-80 97 % of control | endpoint: mean survival time, dose: 50.0 mg/kg/injection, schedule: Q04DX003 (ip), vehicle: saline with Tween-80 96 % of control

COC(=O)c1cccc2c1ccc1ccccc12
inactive: [6] 91 % of control | [7] 95 % of control

CCCCNC(C)(C)C(=O)c1cccs1
inactive: endpoint: mean survival time, dose: 25.0 mg/kg/injection, schedule: Q01DX009 (ip), vehicle: saline 94 % of control | [11] 98 % of control | [1] 100 % of control

Cc1ccc([PH+](c2ccc(C)cc2)c2ccc(C)cc2)cc1.Cc1ccc([PH+](c2ccc(C)cc2)c2ccc(C)cc2)cc1.[Cl][Hg][Cl]
inactive: [11] 103 % of control | [1] 95 % of control | [3] 91 % of control

C1=CC2CC3(OCCO3)C2C1 (stereo not given)
inactive: [8] 98 % of control | [9] 98 % of control

CCCCCCCCCCCCCCCCCCOCCCCCCCCCCCCCCCCCC
inactive: [8] 102 % of control | [2] 95 % of control | [9] 98 % of control | [4] 88 % of control | [10] 93 % of control | [5] 92 % of control

NC(=O)Nc1n[nH]c(-c2ccccc2)n1
inactive: [2] 93 % of control | [4] 91 % of control | [5] 91 % of control

O=C(Nc1nccs1)Nc1cc([N+](=O)[O-])ccc1F
inactive: endpoint: mean survival time, dose: 50.0 mg/kg/injection, schedule: Q01DX009 (ip), vehicle: Klucel (hydroxypropylcellulose) (HPC) 104 % of control | endpoint: mean survival time, dose: 100.0 mg/kg/injection, schedule: Q01DX009 (ip), vehicle: Klucel (hydroxypropylcellulose) (HPC) 96 % of control | endpoint: mean survival time, dose: 200.0 mg/kg/injection, schedule: Q01DX009 (ip), vehicle: Klucel (hydroxypropylcellulose) (HPC) 93 % of control

Cc1cccc(NC(=O)c2ccccc2)n1
inactive: endpoint: mean survival time, dose: 12.5 mg/kg/injection, schedule: Q01DX009 (ip), vehicle: saline with Tween-80 97 % of control | endpoint: mean survival time, dose: 25.0 mg/kg/injection, schedule: Q01DX009 (ip), vehicle: saline with Tween-80 101 % of control | [12] 103 % of control

NCCNC(=O)c1ccccc1
inactive: endpoint: mean survival time, dose: 100.0 mg/kg/injection, schedule: Q04DX003 (ip), vehicle: saline 103 % of control | endpoint: mean survival time, dose: 200.0 mg/kg/injection, schedule: Q04DX003 (ip), vehicle: saline 101 % of control | endpoint: mean survival time, dose: 400.0 mg/kg/injection, schedule: Q04DX003 (ip), vehicle: saline 100 % of control

c1ccc(CCc2ccnc3ccccc23)cc1
inactive: [12] 94 % of control | [8] 98 % of control | [9] 100 % of control

CC(=O)NC1CCCC(C)C1 (stereo not given)
inactive: [2] 96 % of control | [4] 96 % of control | [5] 96 % of control
